The term IC50 denotes the point on the concentration scale where inhibition reaches its midpoint. A higher IC50 goes with weaker potency in that assay. As a reminder, the inhibition is the drop in the measured response relative to a control, in per cent.

The species entered for one experiment is Homo sapiens. The experiment is described as follows: Ratio of the inhibitory concentration against MMP-2 to that of MMP-13.
The next experiment addresses Collagenase 3 (Homo sapiens, UniProt P45452). The experiment is described as follows: Inhibitory concentration against MMP-13.
The target in experiment [1] is 72 kDa type IV collagenase (Homo sapiens, UniProt P08253). The experiment is described as follows: Inhibitory concentration against MMP-2.
Chain of 72 kDa type IV collagenase (P08253 whole entry): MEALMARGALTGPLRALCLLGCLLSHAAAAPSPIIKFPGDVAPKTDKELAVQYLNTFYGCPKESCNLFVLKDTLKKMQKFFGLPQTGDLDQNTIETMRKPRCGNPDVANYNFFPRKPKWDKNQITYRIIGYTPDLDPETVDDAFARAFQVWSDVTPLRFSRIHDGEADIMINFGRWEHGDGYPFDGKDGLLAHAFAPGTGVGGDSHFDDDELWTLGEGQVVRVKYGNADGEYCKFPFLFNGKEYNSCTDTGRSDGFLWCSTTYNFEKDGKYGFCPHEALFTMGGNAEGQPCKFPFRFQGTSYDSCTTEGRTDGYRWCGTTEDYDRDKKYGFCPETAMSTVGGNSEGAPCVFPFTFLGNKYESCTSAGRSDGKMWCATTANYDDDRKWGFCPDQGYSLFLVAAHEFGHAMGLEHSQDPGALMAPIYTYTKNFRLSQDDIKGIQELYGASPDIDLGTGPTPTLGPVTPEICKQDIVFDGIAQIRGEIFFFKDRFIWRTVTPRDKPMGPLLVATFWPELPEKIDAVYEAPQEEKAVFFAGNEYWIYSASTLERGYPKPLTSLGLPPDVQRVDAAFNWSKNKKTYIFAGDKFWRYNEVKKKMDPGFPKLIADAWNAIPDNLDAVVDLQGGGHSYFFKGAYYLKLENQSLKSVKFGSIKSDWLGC
The next experiment deals with T1, Interstitial collagenase (Homo sapiens, UniProt P03956).
T1 sequence (P03956 whole entry): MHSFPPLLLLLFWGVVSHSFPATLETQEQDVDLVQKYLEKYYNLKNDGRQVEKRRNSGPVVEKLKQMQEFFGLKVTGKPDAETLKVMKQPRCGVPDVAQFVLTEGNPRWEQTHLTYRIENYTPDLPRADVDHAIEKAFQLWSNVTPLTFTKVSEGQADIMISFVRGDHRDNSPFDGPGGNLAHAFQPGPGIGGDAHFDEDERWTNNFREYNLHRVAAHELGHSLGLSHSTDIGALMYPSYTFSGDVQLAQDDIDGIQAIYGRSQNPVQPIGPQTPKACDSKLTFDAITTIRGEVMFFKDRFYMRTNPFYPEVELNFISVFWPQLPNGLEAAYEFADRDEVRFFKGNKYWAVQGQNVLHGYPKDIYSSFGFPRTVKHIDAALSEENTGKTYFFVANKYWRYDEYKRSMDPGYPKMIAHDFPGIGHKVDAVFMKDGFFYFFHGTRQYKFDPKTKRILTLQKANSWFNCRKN
The experiment is described as follows: Inhibitory concentration against MMP-1.

Experiment [2] deals with T2, A disintegrin and metalloproteinase with thrombospondin motifs 4 (Homo sapiens, UniProt O75173).
T2 sequence (O75173 whole entry): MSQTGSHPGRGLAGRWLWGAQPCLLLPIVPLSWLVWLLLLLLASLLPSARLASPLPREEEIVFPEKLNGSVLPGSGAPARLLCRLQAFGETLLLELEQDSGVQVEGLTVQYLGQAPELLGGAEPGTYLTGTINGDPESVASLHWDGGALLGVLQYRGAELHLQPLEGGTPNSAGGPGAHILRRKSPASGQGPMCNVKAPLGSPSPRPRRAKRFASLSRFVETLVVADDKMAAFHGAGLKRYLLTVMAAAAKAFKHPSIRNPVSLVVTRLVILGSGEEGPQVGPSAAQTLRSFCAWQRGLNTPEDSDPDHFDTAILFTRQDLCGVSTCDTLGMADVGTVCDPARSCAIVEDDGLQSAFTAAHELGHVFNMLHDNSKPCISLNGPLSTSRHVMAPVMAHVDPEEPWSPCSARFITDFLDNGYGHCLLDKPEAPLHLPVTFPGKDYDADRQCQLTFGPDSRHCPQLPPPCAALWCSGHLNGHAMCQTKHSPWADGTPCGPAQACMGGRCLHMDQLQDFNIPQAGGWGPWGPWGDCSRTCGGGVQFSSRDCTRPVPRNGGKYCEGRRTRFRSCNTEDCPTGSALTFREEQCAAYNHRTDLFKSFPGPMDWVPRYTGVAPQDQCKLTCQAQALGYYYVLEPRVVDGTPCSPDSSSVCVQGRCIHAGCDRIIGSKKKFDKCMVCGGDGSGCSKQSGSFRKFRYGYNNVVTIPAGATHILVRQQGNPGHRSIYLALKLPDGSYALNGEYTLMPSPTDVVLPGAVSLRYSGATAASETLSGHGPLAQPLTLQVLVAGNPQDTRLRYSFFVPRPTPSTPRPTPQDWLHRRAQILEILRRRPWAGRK
Put plainly: Inhibitory concentration against Aggrecanase 1.

A further experiment has as its target Neutrophil collagenase (Homo sapiens, UniProt P22894). Put plainly: Inhibitory concentration against MMP-8.
Another experiment has as its target T3, Matrilysin (Homo sapiens, UniProt P09237).
T3 sequence (P09237 whole entry): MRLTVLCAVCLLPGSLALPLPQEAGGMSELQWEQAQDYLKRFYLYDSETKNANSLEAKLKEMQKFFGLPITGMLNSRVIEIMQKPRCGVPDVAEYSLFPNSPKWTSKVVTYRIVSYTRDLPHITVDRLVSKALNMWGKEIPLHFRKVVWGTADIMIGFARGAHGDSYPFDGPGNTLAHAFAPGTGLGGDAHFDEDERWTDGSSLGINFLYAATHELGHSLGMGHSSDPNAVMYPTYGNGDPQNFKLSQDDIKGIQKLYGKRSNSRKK
The experiment is described as follows: Inhibitory concentration against MMP-7.

In experiment [3] the target is Matrix metalloproteinase-14 (Homo sapiens, UniProt P50281).
Description: Inhibitory concentration against MMP-14
Another experiment addresses Stromelysin-1 (Homo sapiens, UniProt P08254). The experiment is described as follows: Inhibitory concentration against MMP-3.
The target in experiment [4] is Matrix metalloproteinase-9 (Homo sapiens) (UniProt P14780). The experiment is described as follows: Percent inhibition at 25 uM against MMP-9.
Chain of Matrix metalloproteinase-9 (Homo sapiens) (P14780 whole entry, the tested form may be a part): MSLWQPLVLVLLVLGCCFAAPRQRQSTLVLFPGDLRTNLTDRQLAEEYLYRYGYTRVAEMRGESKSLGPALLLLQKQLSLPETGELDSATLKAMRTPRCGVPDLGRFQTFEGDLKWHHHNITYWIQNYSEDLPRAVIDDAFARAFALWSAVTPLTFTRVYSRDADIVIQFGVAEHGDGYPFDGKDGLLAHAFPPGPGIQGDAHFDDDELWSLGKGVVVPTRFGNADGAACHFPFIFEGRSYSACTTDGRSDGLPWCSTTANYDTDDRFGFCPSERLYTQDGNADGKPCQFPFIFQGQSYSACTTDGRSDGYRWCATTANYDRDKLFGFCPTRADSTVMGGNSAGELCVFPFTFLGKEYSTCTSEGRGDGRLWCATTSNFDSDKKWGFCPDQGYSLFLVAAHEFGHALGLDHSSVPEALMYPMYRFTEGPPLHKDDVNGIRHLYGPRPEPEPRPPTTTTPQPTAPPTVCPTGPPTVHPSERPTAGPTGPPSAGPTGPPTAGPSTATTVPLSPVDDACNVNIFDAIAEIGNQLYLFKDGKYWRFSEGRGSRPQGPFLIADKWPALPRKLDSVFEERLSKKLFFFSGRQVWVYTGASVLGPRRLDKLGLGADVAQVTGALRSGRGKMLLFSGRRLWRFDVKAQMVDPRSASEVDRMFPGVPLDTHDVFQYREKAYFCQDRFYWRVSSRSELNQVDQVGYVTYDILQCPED
For experiment [5], the target named is T4, Disintegrin and metalloproteinase domain-containing protein 17 (Homo sapiens, UniProt P78536). Put plainly: Percent inhibition at 25 uM against TACE.
T4 sequence (P78536 whole entry, the tested form may be a part): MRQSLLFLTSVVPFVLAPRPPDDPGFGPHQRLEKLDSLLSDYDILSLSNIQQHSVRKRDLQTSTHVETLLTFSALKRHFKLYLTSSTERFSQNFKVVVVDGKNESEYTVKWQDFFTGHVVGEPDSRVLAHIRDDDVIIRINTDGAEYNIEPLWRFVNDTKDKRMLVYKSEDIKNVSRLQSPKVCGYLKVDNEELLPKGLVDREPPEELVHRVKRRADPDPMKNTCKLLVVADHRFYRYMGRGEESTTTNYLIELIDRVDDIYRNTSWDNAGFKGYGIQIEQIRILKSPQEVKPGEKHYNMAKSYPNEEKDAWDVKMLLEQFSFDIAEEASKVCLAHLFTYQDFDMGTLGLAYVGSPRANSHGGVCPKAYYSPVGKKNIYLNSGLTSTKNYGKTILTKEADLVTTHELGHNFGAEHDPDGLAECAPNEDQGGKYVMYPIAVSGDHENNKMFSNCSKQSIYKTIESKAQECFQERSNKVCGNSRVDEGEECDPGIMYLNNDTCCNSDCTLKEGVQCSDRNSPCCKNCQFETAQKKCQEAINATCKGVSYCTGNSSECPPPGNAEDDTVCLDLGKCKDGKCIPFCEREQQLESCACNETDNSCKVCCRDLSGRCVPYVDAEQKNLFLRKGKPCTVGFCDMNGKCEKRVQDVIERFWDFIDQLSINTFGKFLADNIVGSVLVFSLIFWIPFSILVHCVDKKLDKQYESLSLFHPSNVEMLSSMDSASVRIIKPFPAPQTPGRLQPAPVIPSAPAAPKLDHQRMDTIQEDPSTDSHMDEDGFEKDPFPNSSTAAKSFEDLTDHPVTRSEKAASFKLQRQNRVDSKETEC
The target of experiment [6] is T4, Disintegrin and metalloproteinase domain-containing protein 17. The experiment is described as follows: Inhibitory concentration against TACE.

Chain of Stromelysin-1 (P08254 whole entry): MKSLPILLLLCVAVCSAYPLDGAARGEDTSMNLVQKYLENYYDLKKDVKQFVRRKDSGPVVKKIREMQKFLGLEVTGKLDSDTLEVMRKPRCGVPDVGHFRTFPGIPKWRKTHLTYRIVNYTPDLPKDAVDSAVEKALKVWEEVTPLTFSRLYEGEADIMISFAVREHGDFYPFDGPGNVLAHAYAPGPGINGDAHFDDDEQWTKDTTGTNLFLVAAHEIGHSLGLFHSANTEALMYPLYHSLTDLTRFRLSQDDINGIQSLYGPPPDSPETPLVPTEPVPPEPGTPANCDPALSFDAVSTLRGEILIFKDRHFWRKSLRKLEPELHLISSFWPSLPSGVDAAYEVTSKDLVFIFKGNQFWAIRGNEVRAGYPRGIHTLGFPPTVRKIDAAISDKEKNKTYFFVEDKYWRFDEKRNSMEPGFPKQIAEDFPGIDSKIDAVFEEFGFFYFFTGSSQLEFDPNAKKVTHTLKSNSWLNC
Chain of Neutrophil collagenase (P22894 whole entry): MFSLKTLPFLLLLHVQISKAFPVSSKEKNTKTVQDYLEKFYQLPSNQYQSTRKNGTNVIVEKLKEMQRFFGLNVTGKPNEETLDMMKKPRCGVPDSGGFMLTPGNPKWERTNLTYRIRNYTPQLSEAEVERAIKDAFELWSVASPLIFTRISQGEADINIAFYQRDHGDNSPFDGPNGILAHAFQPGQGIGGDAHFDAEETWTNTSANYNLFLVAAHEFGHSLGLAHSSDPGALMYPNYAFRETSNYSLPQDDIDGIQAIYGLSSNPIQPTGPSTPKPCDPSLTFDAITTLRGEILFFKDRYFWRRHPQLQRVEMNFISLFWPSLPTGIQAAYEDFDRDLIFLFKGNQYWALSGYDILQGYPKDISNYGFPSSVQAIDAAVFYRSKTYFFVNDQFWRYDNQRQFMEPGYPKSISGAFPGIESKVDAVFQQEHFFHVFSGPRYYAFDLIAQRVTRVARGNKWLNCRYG

As for `Cc1c(C(=O)Nc2ccc(-c3ccc(S(=O)(=O)N[C@@H](C(=O)O)C(C)C)cc3)cc2)oc2ccccc12`, the Ratio in the experiment filed under Homo sapiens was found to be 10. Besides, the IC50 amounted to 17 nM against Collagenase 3 and 164 nM in experiment [1].

In the case of `CC(=O)c1ccc2oc(C(=O)Nc3ccc(-c4ccc(S(=O)(=O)N[C@H](C(=O)O)C(C)C)cc4)cc3)c(C)c2c1O`, the Ratio in the experiment listed under Homo sapiens is 20.

For `COc1c(Br)ccc2oc(C(=O)Nc3ccc(-c4ccc(S(=O)(=O)N[C@@H](C(=O)O)C(C)C)cc4)cc3)c(C)c12`, the Ratio in the experiment filed under Homo sapiens came out at 202. For the same compound, the IC50 against Collagenase 3 was determined as 3.4 nM; in experiment [1] it was 688 nM.

In experiment [1], `CC(C)[C@@H](NS(=O)(=O)c1ccc(-c2ccc(NC(=O)c3cc4ccccc4o3)cc2)cc1)C(=O)O` displayed an IC50 of 4.6 nM.

With `Cc1c(C(=O)Nc2ccc(-c3ccc(S(=O)(=O)N[C@H](C(=O)O)C(C)C)cc3)cc2)oc2ccc(Cl)c(OC(C)C)c12`, the IC50 on Interstitial collagenase amounted to 37.1 µM; in [2], 14.3 µM; at Neutrophil collagenase, 110 nM; against Matrilysin, 1640 nM; in experiment [3], 50 µM; at Stromelysin-1, 1090 nM. The Ratio in the experiment listed under Homo sapiens was 275. In addition, the inhibition in experiment [4] came out at 51%; in experiment [5], 98%.

Regarding `Cc1c(C(=O)Nc2ccc(-c3ccc(S(=O)(=O)N[C@H](C(=O)O)C(C)C)cc3)cc2)oc2ccccc12`, in the experiment listed under Homo sapiens, the Ratio came out at 44.

With `COc1c(CO)ccc2oc(C(=O)Nc3ccc(-c4ccc(S(=O)(=O)N[C@H](C(=O)O)C(C)C)cc4)cc3)c(C)c12`, the Ratio in the experiment filed under Homo sapiens stood at 180. Further, the IC50 against Collagenase 3 is 7.8 nM; in experiment [1] it was 1410 nM.

`COc1c(C)ccc2oc(C(=O)Nc3ccc(-c4ccc(S(=O)(=O)N[C@H](C(=O)O)C(C)C)cc4)cc3)c(C)c12`: the IC50 at Interstitial collagenase is 37.1 µM; in experiment [2] it was 8.6 µM; against Neutrophil collagenase, 52 nM; at Matrilysin it was 534 nM; in experiment [3] it was 15 µM; against Stromelysin-1 it was 442 nM. Besides, the Ratio in the experiment filed under Homo sapiens was determined as 330. In addition, the inhibition is 76% in experiment [4] and 39% in experiment [5].

Turning to `COc1c(I)ccc2oc(C(=O)Nc3ccc(-c4ccc(S(=O)(=O)N[C@H](C(=O)O)C(C)C)cc4)cc3)c(C)c12`, the IC50 against Interstitial collagenase stood at 60 µM; in experiment [2], 15 µM; against Neutrophil collagenase it was 404 nM; against Matrilysin it was 3010 nM; in [3], 30 µM; against Stromelysin-1 it was 1060 nM. Further, in the experiment filed under Homo sapiens, the Ratio is 650. The inhibition was found to be 51% in experiment [4] and 38% in [5].

In the case of `COc1c(Br)ccc2oc(C(=O)Nc3ccc(-c4ccc(S(=O)(=O)N[C@H](C(=O)O)C(C)C)cc4)cc3)c(C)c12`, the Ratio in the experiment listed under Homo sapiens is 740. In addition, the IC50 came out at 5.6 µM in experiment [2]; 34 µM in experiment [6]; 73 nM at Neutrophil collagenase; 866 nM on Matrilysin; 15 µM in [3]; 144 nM at Stromelysin-1. Moreover, the inhibition in experiment [4] is 66%.

In the case of `CCc1c(C(=O)Nc2ccc(-c3ccc(S(=O)(=O)N[C@H](C(=O)O)C(C)C)cc3)cc2)oc2ccccc12`, in the experiment filed under Homo sapiens, the Ratio stood at 32. Also, half-maximal inhibition against Collagenase 3 (IC50) required 55 nM.

As to `CC(C)[C@H](NS(=O)(=O)c1ccc(-c2ccc(NC(=O)c3cc4cc(Br)ccc4o3)cc2)cc1)C(=O)O`, the Ratio in the experiment filed under Homo sapiens was 1. The compound further yielded an IC50 at Collagenase 3 of 0.61 nM.

`CCc1ccc2oc(C(=O)Nc3ccc(-c4ccc(S(=O)(=O)N[C@H](C(=O)O)C(C)C)cc4)cc3)c(C)c2c1OCc1ccccc1`: the Ratio in the experiment filed under Homo sapiens was 65.

Turning to `COc1cccc2oc(C(=O)Nc3ccc(-c4ccc(S(=O)(=O)N[C@H](C(=O)O)C(C)C)cc4)cc3)cc12`, the Ratio in the experiment listed under Homo sapiens is 7.

In the case of `Cc1c(C(=O)Nc2ccc(-c3ccc(S(=O)(=O)N[C@H](C(=O)O)C(C)C)cc3)cc2)oc2ccc(Br)cc12`, in the experiment listed under Homo sapiens, the Ratio amounted to 27.

Take `COc1c(Cl)ccc2oc(C(=O)Nc3ccc(-c4ccc(S(=O)(=O)N[C@H](C(=O)O)C(C)C)cc4)cc3)c(C)c12`: the Ratio in the experiment listed under Homo sapiens is 785.

`CC(C)[C@H](NS(=O)(=O)c1ccc(-c2ccc(NC(=O)c3oc4ccccc4c3-c3ccccc3)cc2)cc1)C(=O)O`: the Ratio in the experiment listed under Homo sapiens was 6. Moreover, the IC50 in [1] was 1200 nM.

`COc1cccc2oc(C(=O)Nc3ccc(-c4ccc(S(=O)(=O)N[C@H](C(=O)O)C(C)C)cc4)cc3)c(C)c12`: the Ratio in the experiment filed under Homo sapiens came out at 110.

`CCc1ccc2oc(C(=O)Nc3ccc(-c4ccc(S(=O)(=O)N[C@H](C(=O)O)C(C)C)cc4)cc3)c(C)c2c1OC`: the IC50 was 28 µM against Interstitial collagenase; greater than 15 µM in experiment [2]; 101 nM against Neutrophil collagenase; 1260 nM on Matrilysin; 30 µM in experiment [3]; 561 nM against Stromelysin-1. Also, the Ratio in the experiment filed under Homo sapiens stood at 660. Further, the inhibition stood at 64% in [4] and 43% in experiment [5].

`CCc1ccc2oc(C(=O)Nc3ccc(-c4ccc(S(=O)(=O)N[C@H](C(=O)O)C(C)C)cc4)cc3)c(C)c2c1OC(C)C`: the Ratio in the experiment listed under Homo sapiens was 260.

As for `CCc1ccc2oc(C(=O)Nc3ccc(-c4ccc(S(=O)(=O)N[C@H](C(=O)O)C(C)C)cc4)cc3)c(C)c2c1O`, the IC50 on Interstitial collagenase turned out to be 23.4 µM; in experiment [2], 4.4 µM; on Neutrophil collagenase it was 94 nM; on Matrilysin it was 458 nM; in experiment [3], 15.8 µM; against Stromelysin-1, 492 nM. The Ratio in the experiment filed under Homo sapiens was 250. In addition, the values for the inhibition in [4] and in [5] were 55% and 42%, respectively.

Consider `COc1c(C#N)ccc2oc(C(=O)Nc3ccc(-c4ccc(S(=O)(=O)N[C@H](C(=O)O)C(C)C)cc4)cc3)c(C)c12`, for which the Ratio in the experiment listed under Homo sapiens came to 175.

Consider `COc1c(Br)ccc2oc(C(=O)Nc3ccc(-c4ccc(S(=O)(=O)N[C@H](C(=O)O)C(C)C)cc4)cc3)cc12`, for which, in the experiment listed under Homo sapiens, the Ratio is 18. Moreover, the IC50 on Collagenase 3 worked out at 0.4 nM; in experiment [1], 7.1 nM.

(Values after ChEMBL document CHEMBL1143494 (Bioorg Med Chem Lett, 2005).)
